We go through 18 compounds from US4383113A, “Agricultural sulfonamides” (E. I. Du Pont de Nemours and Company, priority 1981, dated 1983).

Common to all, as to parameters: key: 0 = no effect, 10 = maximum effect; letter = response symbol
Test [1] deals with nutsedge. The test can be described thus: Test A post-emergence. The class given is in vivo, Cyperus rotundus. As to conditions: 0.4 kg/ha. An excerpt:
(§1) The activity of these compounds was discovered in a number of greenhouse and field tests. The ratings are based on a numerical scale extending from 0=no effect, to 10=maximum effect. The accompanying descriptive symbols have the following meanings:
(§2) Seeds of crabgrass (Digitaria spp.), barnyardgrass (Echinochloa crusgalli), wild oats (Avena fatua), cassia (Cassia tora), morningglory (Ipomoea spp.), cocklebur (Xanthium spp.), sorghum, corn, soybean, rice, wheat and nutsedge tubers (Cyperus rotundus) were planted in a growth medium and treated preemergence with a nonphytotoxic solvent solution of the compounds of Table XII. Other batches of seeds and tubers for all of the foregoing weed and crop plants were planted at the same time as controls. The control plantings were untreated; i.e., neither any compound nor any solvent was applied. At the same time, cotton having five leaves (including cotyledonary ones), bush beans with the third trifoliate leaf expanding, crabgrass with two leaves, barnyardgrass with two leaves, wild oats with two leaves, cassia with three leaves (including cotyledonary ones), morningglory with four leaves (including the cotyledonary ones), cocklebur with four leaves (including the cotyledonary ones), sorghum with four leaves, corn with four leaves, soybean with two cotyledonary leaves, rice with three leaves, wheat with one leaf, and nutsedge with three-five leaves were sprayed with a nonphytotoxic solvent solution of the compounds of Table XII. Other groups of all the same weed and crop plants were sprayed with the same nonphytotoxic solvent so as to provide control plants. Preemergence and postemergence treated plants and controls were maintained in a greenhouse for sixteen days, then all treated plants were compared with their respective controls and rated visually for response to treatment.

Test [2] relates to barnyardgrass. The test can be described thus: Test A post-emergence. The format is in vivo, Echinochloa crusgalli. To be noted: 0.4 kg/ha.
Description: as §1, §2

Test [3] deals with crabgrass. The test can be described thus: Test A post-emergence. The class given is in vivo, Digitaria spp. To be noted: 0.4 kg/ha.
Description: as §1, §2

The test system of test [4] is cassia. The test can be described thus: Test A post-emergence. The format is in vivo, Cassia tora. As to conditions: 0.4 kg/ha.
Description: as §1, §2

Test [5] relates to wild oats. The test can be described thus: Test A post-emergence. The format is in vivo, Avena fatua. As to conditions: 0.4 kg/ha.
Description: as §1, §2

The test system of test [6] is soybean. As to the kind of experiment: Test A post-emergence. The class given is in vivo. As to conditions: 0.4 kg/ha.
Description: as §1, §2

Test [7] concerns morningglory. As to the kind of experiment: Test A post-emergence. The class given is in vivo, Ipomoea spp. As to conditions: 0.4 kg/ha.
Description: as §1, §2

Test [8] concerns wheat. As to the kind of experiment: Test A post-emergence. The class given is in vivo. To be noted: 0.4 kg/ha.
Description: as §1, §2

Test [9] deals with corn. As to the kind of experiment: Test A post-emergence. The format is in vivo. As to conditions: 0.4 kg/ha.
Description: as §1, §2

Test [10] relates to bush bean. The test can be described thus: Test A post-emergence. The class given is in vivo, bush beans. To be noted: 0.4 kg/ha.
Test [11] concerns cocklebur. The test can be described thus: Test A post-emergence. The class given is in vivo, Xanthium spp. To be noted: 0.4 kg/ha.
Description: as §1, §2

Test [12] deals with sorghum. The test can be described thus: Test A post-emergence. The class given is in vivo. As to conditions: 0.4 kg/ha.
Description: as §1, §2

For test [13], the system named is cassia. As to the kind of experiment: Test A pre-emergence. As to conditions: 0.4 kg/ha. The format is in vivo, Cassia tora.
Description: as §1, §2

Test [14] concerns soybean. The test can be described thus: Test A pre-emergence. To be noted: 0.4 kg/ha. The class given is in vivo.
Description: as §1, §2

The test system of test [15] is sorghum. As to the kind of experiment: Test A pre-emergence. To be noted: 0.4 kg/ha. The format is in vivo.
Description: as §1, §2

In test [16] the test system is wheat. The test can be described thus: Test A pre-emergence. To be noted: 0.4 kg/ha. The format is in vivo.
Description: as §1, §2

For test [17], the system named is corn. The test can be described thus: Test A pre-emergence. The format is in vivo.
Description: as §1, §2

Test [18] relates to cocklebur. The test can be described thus: Test A pre-emergence. The class given is in vivo, Xanthium spp. To be noted: 0.4 kg/ha.
Description: as §1, §2

In test [19] the test system is barnyardgrass. As to the kind of experiment: Test A pre-emergence. The format is in vivo, Echinochloa crusgalli. As to conditions: 0.4 kg/ha.
Description: as §1, §2

Test [20] concerns morningglory. The test can be described thus: Test A pre-emergence. The format is in vivo, Ipomoea spp. As to conditions: 0.4 kg/ha.
Description: as §1, §2

SMILES strings stand for the structures.

Regarding `COC(=O)c1ccccc1S(=O)(=O)NC(=O)N(C)c1nc(C)cc(C)n1` [drawing 419], the response rating is given as 7G in test [1]; 9C in test [2]; 7G in test [3]; 2C in test [4]; 6C in [5]; 3C in [6].

In the case of `CCC(C)OC(=O)c1ccccc1S(=O)(=O)NC(=O)Nc1nc(OC)cc(OC)n1` (centres unmarked) [drawing 423], the response rating in test [1] turned out to be 7G; in test [2] it was 9C; in [3] it was 2A; in test [7], 9C; in test [5], 2C; in test [6], 9C. In addition, the response rating is reported as 1C in [8] and 9H in test [9].

As to `COc1nc(C)nc(NC(=O)NS(=O)(=O)c2ccccc2C(=O)OC2CCCC2)n1` [drawing 445], the response rating is reported as 7G in test [1]; 1C in test [3]; 10C in test [7]; 8C in test [10]; 1C in test [5]; 9C in test [11]. Moreover, the response rating was determined as 9C in test [6], 8G in test [12] and 1C in test [8].

As to `COc1cc(C)nc(NC(=O)NS(=O)(=O)c2ccccc2C(=O)OC2CCOC2)n1` (centres unmarked) [drawing 446], the response rating in test [2] stood at 9C; in test [7] it was 9C; in test [10], 9C; in [5] it was 7G; in test [6], 9C; in test [12], 9C. This compound also displayed a response rating in [8] of 7C.

For the compound `CCCC(OC(=O)c1ccccc1S(=O)(=O)NC(=O)Nc1nc(C)nc(OC)n1)C(C)C` (centres unmarked) [drawing 458], the response rating is 9C in test [2]; 3C in test [3]; 10C in [7]; 9C in [4]; 9C in test [10]; 10C in test [11]. Besides, the response rating in test [6] and in test [9] was 9C each time.

Regarding `COc1cc(C)nc(NC(=O)NS(=O)(=O)c2ccccc2C(=O)NC(C)C)n1` [drawing 463], the response rating in test [1] was 9C; in test [2], 9C; in test [3] it was 10C; in [7], 10C; in [4], 9C; in test [5], 9C. The response rating in [11], in test [6] and in test [12] was 9C throughout.

Regarding `COc1cc(C)nc(NC(=O)NS(=O)(=O)c2ccccc2C(=O)OCCCl)n1` [drawing 488], the response rating in test [13] is on record as 9C; in test [14], 9H; in [15], 10H; in test [16], 9H; in test [17] (0.4 kg/ha) it was 10H; in [18] it was 9G. Besides, the response rating in [19] is recorded as 10H; in test [20], 9C.

In the case of `Cc1cc(C)nc(NC(=O)NS(=O)(=O)c2ccccc2C(=O)O)n1` [drawing 510], the response rating in test [17] (2 kg/ha) was determined as 3G.

Take `COc1cc(C)nc(NC(=O)NS(=O)(=O)c2ccccc2C(=O)OCCOc2ccccc2)n1` [drawing 528]: the response rating in test [14] was 9H; in test [16] it was 9H; in test [17] (0.4 kg/ha), 9G; in test [18], 9G; in test [20] it was 9C.

Take `COc1cc(C)nc(NC(=O)NS(=O)(=O)c2ccccc2C(=O)N(C)C)n1` [drawing 532]: the response rating was 9G in [13]; 9H in test [14]; 9H in test [15]; 9H in test [16]; 9H in test [17] (0.4 kg/ha); 9G in [18]. The values for the response rating in test [19] and in [20] were 9H and 9G, respectively.

As for `COC(=O)c1ccccc1S(=O)(=O)NC(=O)Nc1nc(OC)cc(OC(C)C(=O)OC)n1` (centres unmarked) [drawing 535], the response rating in test [14] stood at 9H; in test [15], 10H; in [17] (0.4 kg/ha), 10H.

For `CCOCCSc1cc(C)nc(NC(=O)NS(=O)(=O)c2ccccc2C(=O)OC)n1` [drawing 536], the response rating in [14] came to 9H; in [15] it was 9H; in [17] (0.4 kg/ha), 9G; in [20], 9G.

In the case of `COCCCOc1cc(C)nc(NC(=O)NS(=O)(=O)c2ccccc2C(=O)OC)n1` [drawing 537], the response rating in test [13] is listed as 8G; in test [14], 9H; in test [15], 9H; in test [16] it was 9H; in [17] (0.4 kg/ha), 9H; in test [18] it was 9G.

With `COC(=O)c1ccccc1S(=O)(=O)NC(=O)Nc1nc(C)nc(N(C)C)n1` [drawing 539], the response rating stood at 8G in test [13]; 9H in test [14]; 9H in test [15]; 9H in [16]; 9G in test [17] (0.4 kg/ha); 9G in test [18]. For the same compound, the response rating in test [20] was 9G.

Take `COCCc1nc(NC(=O)NS(=O)(=O)c2ccccc2C(=O)OC)nc(OC)n1` [drawing 541]: the response rating is 9H in test [14]; 9H in test [15]; 6G in [16]; 10H in test [17] (0.4 kg/ha); 9G in test [18]; 9G in test [20].

For the compound `COc1cc(C)nc(NC(=O)NS(=O)(=O)c2ccccc2C(=O)SCc2ccccc2)n1` [drawing 542], the response rating in test [13] was 9G; in test [14], 9H; in test [15] it was 9H; in test [16], 9H; in test [17] (0.4 kg/ha), 9G; in test [18] it was 8G. In test [20], this compound returned a response rating of 9G.

In the case of `COc1cc(C)nc(NC(=O)NS(=O)(=O)c2ccccc2C(=O)SC2CCCCC2)n1` [drawing 543], the response rating in [13] worked out at 9G; in test [14], 9H; in test [15] it was 9H; in test [16], 9H; in test [17] (0.4 kg/ha), 9G; in test [18], 9G. The response rating in test [19] and in [20] was 9H throughout.

For `COc1cc(C)nc(NC(=O)NS(=O)(=O)c2ccccc2C(=O)OC(C)CCl)n1` (centres unmarked) [drawing 545], the response rating in test [13] is 9G; in [14], 9H; in test [16] it was 9H; in test [17] (0.4 kg/ha) it was 9H; in [18], 9G; in [20], 9G.
